{
  "source": "patent US7479507B2",
  "about": "“Anti-inflammatory substituted phenols and elastomeric compositions for oral delivery of drugs” (priority 2003, dated 2009)",
  "key": {"[1]": {"tested_on": "carp", "settings": "0.3-3 ppm; cited from earlier work"}, "[2]": {"tested_on": "dogs diagnosed with arthritis or chronic or degenerative joint disease", "experiment": "Owner-reported mobility of dogs with arthritis or chronic or degenerative joint disease, daily oral dosing, placebo-controlled", "assay_type": "in vivo, dog", "protocol": "The experiments below were performed on dogs after the informed consent of their owners was obtained. […] The specified compound was administered orally once a day with the dog's meal. […] The owners reported weekly any change in the ability of their dog to stand up, walk, run, climb and descend stairs, get on and off a bed, sofa, or chair, get into and out of a car, their limping and behavior."}, "[3]": {"tested_on": "rat", "settings": "cited from earlier work"}, "[4]": {"tested_on": "rat", "settings": "cited from earlier work", "remark": "listed apart in the source"}, "[5]": {"tested_on": "Chinese hamster", "settings": "cited from earlier work"}, "[6]": {"tested_on": "rats", "settings": ">2.35 mg/l air aerosol, mostly (~80%) particles smaller than 7 μm; cited from earlier work"}},
  "data": [
    {"compound": "calcium salt of the monoethyl ester of (((3,5-bis(1,1-dimethylethyl)-4-hydroxyphenyl)methyl) phosphonic acid [Compound 1]", "values": [
      {"measurement": "bioconcentration (accumulation)", "setting": "[1]", "result": "No bioconcentration (accumulation) was detected"},
      {"measurement": "change in dog's condition", "setting": "[2]; Example 7, 33 lb Kelpie-mix, about 10 mg daily oral capsule, 4th week", "result": "condition continued to improve"},
      {"measurement": "change in dog's condition", "setting": "[2]; Example 7, 33 lb Kelpie-mix, about 10 mg daily oral capsule, after 2 weeks", "result": "moved smoothly, had less difficulty getting out of the car or off the sofa, ran better and more often, and was more active"},
      {"measurement": "change in dog's condition", "setting": "[2]; Example 7, 33 lb Kelpie-mix, about 10 mg daily oral capsule, after 3 weeks", "result": "freely getting off the bed, down from the sofa and out of the car"},
      {"measurement": "change in dog's condition", "setting": "[2]; Example 7, 33 lb Kelpie-mix, arthritis of shoulders and elbow, about 10 mg daily oral capsule, after 1 week", "result": "got down the sofa and out of the car more easily"},
      {"measurement": "change in dog's condition", "setting": "[2]; Example 8, 13 lb miniature Poodle, about 10 mg daily oral capsule, after 3 weeks", "result": "ran frequently and jumped up on the sofa without hesitation"},
      {"measurement": "change in dog's condition", "setting": "[2]; Example 8, 13 lb miniature Poodle, about 10 mg daily oral capsule, after 4 weeks", "result": "climbing and running freely"},
      {"measurement": "change in dog's condition", "setting": "[2]; Example 8, 13 lb miniature Poodle, unknown disease, about 10 mg daily oral capsule, after two weeks", "result": "climbed stairs with less hesitation and ran occasionally"},
      {"measurement": "change in dog's condition", "setting": "[2]; Example 9, 85 lb Labrador retriever, about 15 mg Compound 1 daily capsule and Rimadyl, after 1 week", "result": "stood up without assistance and limped less"},
      {"measurement": "change in dog's condition", "setting": "[2]; Example 9, 85 lb Labrador retriever, about 15 mg Compound 1 daily capsule and Rimadyl, after 3 weeks", "result": "started to move faster, then to run"},
      {"measurement": "change in dog's condition", "setting": "[2]; Example 9, 85 lb Labrador retriever, about 15 mg Compound 1 daily capsule and Rimadyl, after two weeks", "result": "moved faster and was not bothered by its hips"},
      {"measurement": "change in dog's condition", "setting": "[2]; Example 9, 85 lb Labrador retriever, about 15 mg Compound 1 daily capsule, Rimadyl discontinued, 4th week", "result": "got up and moved rapidly with ease and it's running improved"},
      {"measurement": "change in dog's condition", "setting": "[2]; Example 11, 62 lb Australian cattle dog, about 10 mg Compound 1 daily capsule, after 2 weeks", "result": "stood well, limped less, and climbed the 3 stairs to and from the house"},
      {"measurement": "change in dog's condition", "setting": "[2]; Example 11, 62 lb Australian cattle dog, about 10 mg Compound 1 daily capsule, after 3 weeks", "result": "trotted and climbed 5 stairs"},
      {"measurement": "change in dog's condition", "setting": "[2]; Example 11, 62 lb Australian cattle dog, about 10 mg Compound 1 daily capsule, after 4 weeks", "result": "condition was further improved"},
      {"measurement": "change in dog's condition", "setting": "[2]; Example 11, 62 lb Australian cattle dog, after 5 months untreated, about 10 mg Compound 1 daily capsule, after one week", "result": "stood longer, walked, and enjoyed the outdoors"},
      {"measurement": "number of dogs for which improvement was evident", "setting": "[2]; of 5 dogs given Compound 1", "result": 4, "unit": "dogs"},
      {"measurement": "oral LD50", "setting": "[3]", "result": "exceeds 6000 mg/kg"},
      {"measurement": "intraperitoneal LD50", "setting": "[4]", "result": 662, "unit": "mg/kg"},
      {"measurement": "oral LD50", "setting": "[5]", "result": "exceeds 2000 mg/kg"},
      {"measurement": "deaths after 4 hour inhalation", "setting": "[6]", "result": "no deaths"}
    ]},
    {"compound": "CC(C(=O)O)c1ccc2c(c1)[nH]c1ccc(Cl)cc12", "note": "(stereo not shown) [Rimadyl®, reference compound]", "values": [
      {"measurement": "change in dog's condition", "setting": "[2]; Example 9, 85 lb Labrador retriever, arthritis of the hips, Rimadyl alone before Compound 1", "result": "slightly improved the dog's condition"}
    ]}
  ]
}
